Experimental findings from patent publication US7981512B2, “Organic polymer-magnetic particles and process for producing same” (JSR Corporation, priority 2006, dated 2011) are described below.

The conditions of this data set: distilled water. Here is the method:
In the invention, the solubility in water at 25° C. of the monomer is determined by slowly adding the monomer in question to distilled water at 25° C. while stirring until the monomer separates from the water. The amount (% by mass) of the monomer in the solution immediately before separation is defined as the solubility.

Consider `C=C(C)C(=O)O` [methacrylic acid], for which the “solubility in water at 25° C.” value is 100 % by mass.

Consider `C=C(C)C(=O)OCCOC(=O)c1ccccc1C(=O)O` [2-methacryloyloxyethyl phthalate], for which the “solubility in water at 25° C.” value is given as “less than 0.2 % by mass”.
